molecular target: SARS2 protease (Severe acute respiratory syndrome coronavirus 2, UniProt P0DTD1); test: SARS-CoV-2 protease inhibition assay (SARS2 FRET protease assay); format: biochemical; details: SARS-CoV-2 protease 25 nM, FRET, peptide substrate 1.3 μM, 30 minutes at 30° C., compounds 20 μM to 1.0 nM; read-out: IC50

Going from `CC(C)(c1cccc(Cl)c1)C(OC(=O)N[C@@H](CC1CCCCC1)C(=O)N[C@@H](C[C@@H]1CCNC1=O)C(=O)C(N)=O)c1ccc(Cl)cc1` (stereo partly drawn) [Compound C134, 2-(3-Chlorophenyl)-1-(4-chlorophenyl)-2-methylpropyl ((S)-1-(((S)-4-amino-3,4-dioxo-1-((S)-2-oxopyrrolidin-3-yl)butan-2-yl)amino)-3-cyclohexyl-1-oxopropan-2-yl)carbamate] to `CC(C)(c1cccc(Cl)c1)C(OC(=O)N[C@@H](CC1CCCCC1)C(=O)N[C@@H](C[C@@H]1CCNC1=O)C(=O)C(N)=O)c1ccc(F)cc1` (stereo partly drawn) [Compound C135, 2-(3-Chlorophenyl)-1-(4-fluorophenyl)-2-methylpropyl ((S)-1-(((S)-4-amino-3,4-dioxo-1-((S)-2-oxopyrrolidin-3-yl)butan-2-yl)amino)-3-cyclohexyl-1-oxopropan-2-yl) carbamate], the IC50 rises from 767 nM to 1890 nM (2.5-fold).

First: Cc1cccc(C(OC(=O)N[C@@H](CC2CCCCC2)C(=O)N[C@H](C=O)C[C@@H]2CCNC2=O)C(C)(C)c2cccc(Cl)c2)c1 (stereo partly drawn) [Compound C136, 2-(3-Chlorophenyl)-2-methyl-1-(m-tolyl) propyl ((S)-3-cyclohexyl-1-oxo-1-(((S)-1-oxo-3-((S)-2-oxopyrrolidin-3-yl)propan-2-yl)amino)propan-2-yl) carbamate]
Second: CC(C)(c1cccc(Cl)c1)C(OC(=O)N[C@@H](CC1CCCCC1)C(=O)N[C@H](C=O)C[C@@H]1CCNC1=O)c1ccc(F)cc1 (stereo partly drawn) [Compound C137, 2-(3-Chlorophenyl)-1-(4-fluorophenyl)-2-methylpropyl ((S)-3-cyclohexyl-1-oxo-1-(((S)-1-oxo-3-((S)-2-oxopyrrolidin-3-yl)propan-2-yl)amino)propan-2-yl) carbamate]
The IC50 of the first is 97-fold lower: 0.45 nM for the first, 43.6 nM for the second. The first is the more potent here.

Compared with `CC(C)C(=O)N1CCC2(CC1)CC(CC(NC(=O)[C@H](CC1CCCCC1)NC(=O)c1cc3ccccc3[nH]1)C(=O)C(N)=O)C(=O)N2` (stereo partly drawn) [Compound C138, N-((2S)-1-((4-amino-1-(8-isobutyryl-2-oxo-1,8-diazaspiro[4.5]decan-3-yl)-3,4-dioxobutan-2-yl)amino)-3-cyclohexyl-1-oxopropan-2-yl)-1H-indole-2-carboxamide], `CC(=O)N1CCC2(CC1)CC(CC(C=O)NC(=O)[C@H](CC1CCCCC1)NC(=O)c1cc3cc(Cl)ccc3[nH]1)C(=O)N2` (stereo partly drawn) [Compound C141, N-((2S)-1-((1-(8-acetyl-2-oxo-1,8-diazaspiro[4.5]decan-3-yl)-3-oxopropan-2-yl)amino)-3-cyclohexyl-1-oxopropan-2-yl)-5-chloro-1H-indole-2-carboxamide] is 8-fold lower in IC50: 245 nM for the first, 30.8 nM for the second. The second is the more potent here.

Going from `CC(C)(C1CCCCC1)C(NC(=O)OCc1ccccc1)C(=O)N[C@H](C=O)C[C@@H]1CCNC1=O` (stereo partly drawn) [Compound C140, Benzyl (3-cyclohexyl-3-methyl-1-oxo-1-(((S)-1-oxo-3-((S)-2-oxopyrrolidin-3-yl)propan-2-yl)amino)butan-2-yl)carbamate] to `CC(C)(c1cccc(Cl)c1)C(OC(=O)N[C@@H](CC1CCCCC1)C(=O)N[C@H](C=O)C[C@@H]1CCNC1=O)c1ccccc1Cl` (stereo partly drawn) [Compound C160, 1-(2-chlorophenyl)-2-(3-chlorophenyl)-2-methylpropyl ((S)-3-cyclohexyl-1-oxo-1-(((S)-1-oxo-3-((S)-2-oxopyrrolidin-3-yl)propan-2-yl)amino)propan-2-yl) carbamate], the IC50 falls from 405 nM to 24.7 nM (16-fold). The second is the more potent here.

Going from `CC(C)(c1cccc(Cl)c1)C(OC(=O)N[C@@H](CC1CCCCC1)C(=O)N[C@H](C=O)C[C@@H]1CCNC1=O)c1ccc(Cl)cc1` (stereo partly drawn) [Compound C143, 2-(3-Chlorophenyl)-1-(4-chlorophenyl)-2-methylpropyl ((S)-3-cyclohexyl-1-oxo-1-(((S)-1-oxo-3-((S)-2-oxopyrrolidin-3-yl)propan-2-yl)amino)propan-2-yl) carbamate] to `CC(C)(c1cccc(Cl)c1)C(OC(=O)N[C@@H](CC1CCCCC1)C(=O)N[C@@H](C[C@@H]1CCNC1=O)C(=O)C(=O)NC1CC1)c1ccc(Cl)cc1` (stereo partly drawn) [Compound C145, 2-(3-Chlorophenyl)-1-(4-chlorophenyl)-2-methylpropyl ((S)-3-cyclohexyl-1-(((S)-4-(cyclopropylamino)-3,4-dioxo-1-((S)-2-oxopyrrolidin-3-yl)butan-2-yl)amino)-1-oxopropan-2-yl) carbamate], the IC50 rises from 3.6 nM to 4300 nM (1200-fold).

Compared with `CC(C)(c1cccc(Cl)c1)C(OC(=O)N[C@@H](CC1CCCCC1)C(=O)N[C@@H](C[C@@H]1CCNC1=O)C(=O)C(=O)NC1CC1)c1ccc(F)cc1` (stereo partly drawn) [Compound C144, 2-(3-Chlorophenyl)-1-(4-fluorophenyl)-2-methylpropyl ((S)-3-cyclohexyl-1-(((S)-4-(cyclopropylamino)-3,4-dioxo-1-((S)-2-oxopyrrolidin-3-yl)butan-2-yl)amino)-1-oxopropan-2-yl) carbamate], `CC(C)(c1cccc(Cl)c1)C(OC(=O)N[C@@H](CC1CCCCC1)C(=O)N[C@@H](C[C@@H]1CCNC1=O)C(=O)C(=O)NC1CC1)c1ccccc1` (stereo partly drawn) [Compound C148, 2-(3-Chlorophenyl)-2-methyl-1-phenylpropyl ((S)-3-cyclohexyl-1-(((S)-4-(cyclopropylamino)-3,4-dioxo-1-((S)-2-oxopyrrolidin-3-yl)butan-2-yl)amino)-1-oxopropan-2-yl)carbamate] is 2.1-fold lower in IC50: 2020 nM for the first, 973 nM for the second.

Compared with `O=C(N[C@@H](Cc1ccccc1)C(=O)N[C@@H](C[C@@H]1CCNC1=O)C(=O)C(=O)NC1CC1)OC1CCCC1Cc1cccc(Cl)c1` (stereo partly shown) [Compound C146], `O=C(N[C@@H](CC1CCCCC1)C(=O)N[C@@H](C[C@@H]1CCNC1=O)C(=O)C(=O)NC1CC1)OC1CCCC1Cc1cccc(Cl)c1` (stereo partly drawn) [Compound C151, 2-(3-Chlorobenzyl)cyclopentyl ((S)-3-cyclohexyl-1-(((S)-4-(cyclopropylamino)-3,4-dioxo-1-((S)-2-oxopyrrolidin-3-yl)butan-2-yl)amino)-1-oxopropan-2-yl)carbamate] is lower in IC50: greater than 20000 nM for the first, 3670 nM for the second. The second is the more potent here.

`CC(C)C[C@H](NC(=O)OC(Cc1cccc(Cl)c1)c1ccccc1)C(=O)N[C@@H](C[C@@H]1CCNC1=O)C(=O)C(=O)NC1CC1` (stereo partly drawn) [Compound C147, 2-(3-Chlorophenyl)-1-phenylethyl ((S)-1-(((S)-4-(cyclopropylamino)-3,4-dioxo-1-((S)-2-oxopyrrolidin-3-yl)butan-2-yl)amino)-4-methyl-1-oxopentan-2-yl) carbamate] and `O=C(N[C@@H](CC1CCCCC1)C(=O)N[C@@H](C[C@@H]1CCNC1=O)C(=O)C(=O)NC1CC1)OC(Cc1cccc(Cl)c1)c1ccccc1` (stereo partly shown) [Compound C158] are within 1.5-fold of each other in IC50: 3000 nM for the first, 2610 nM for the second.

`O=C(N[C@@H](CC1CCCCC1)C(=O)N[C@@H](C[C@H]1CC2(CCCCC2)NC1=O)C(=O)C(=O)NC1CC1)OCc1cccc(Cl)c1` [Compound C149, 3-Chlorobenzyl ((S)-3-cyclohexyl-1-(((S)-4-(cyclopropylamino)-3,4-dioxo-1-((S)-2-oxo-1-azaspiro[4.5]decan-3-yl)butan-2-yl)amino)-1-oxopropan-2-yl)carbamate] and `O=C(N[C@@H](CC1CCCCC1)C(=O)N[C@@H](C[C@@H]1CC2(CCCC2)NC1=O)C(=O)C(=O)NC1CC1)OC1CCCC1Cc1cccc(Cl)c1` (stereo partly drawn) [Compound C159, 2-(3-Chlorobenzyl)cyclopentyl ((2S)-3-cyclohexyl-1-((4-(cyclopropylamino)-3,4-dioxo-1-(2-oxo-1-azaspiro[4.4]nonan-3-yl)butan-2-yl)amino)-1-oxopropan-2-yl)carbamate] are within 1.5-fold of each other in IC50: 3970 nM for the first, 3490 nM for the second.

Going from `CC(C)(c1cccc(Cl)c1)C(OC(=O)N[C@@H](CC1CCCCC1)C(=O)N[C@@H](C[C@@H]1CCNC1=O)C(=O)C(=O)N1CCCC1)c1ccc2ccccc2c1` (stereo partly drawn) [Compound C150, 2-(3-Chlorophenyl)-2-methyl-1-(naphthalen-2-yl)propyl ((S)-3-cyclohexyl-1-(((S)-3,4-dioxo-1-((S)-2-oxopyrrolidin-3-yl)-4-(pyrrolidin-1-yl)butan-2-yl)amino)-1-oxopropan-2-yl)carbamate] to `CC1(C)CC(CC(NC(=O)[C@H](CC2CCCCC2)NC(=O)OC(Cc2cccc(Cl)c2)c2ccccc2)C(=O)C(=O)NC2CC2)C(=O)N1` (stereo partly drawn) [Compound C155, 2-(3-Chlorophenyl)-1-phenylethyl ((2S)-3-cyclohexyl-1-((4-(cyclopropylamino)-1-(5,5-dimethyl-2-oxopyrrolidin-3-yl)-3,4-dioxobutan-2-yl)amino)-1-oxopropan-2-yl) carbamate], the IC50 falls from greater than 20000 nM to 1560 nM. The second is the more potent here.

Going from `CC(C)C[C@H](NC(=O)OC1CCCC1Cc1cccc(Cl)c1)C(=O)N[C@H](C=O)C[C@@H]1CCNC1=O` (stereo partly drawn) [Compound C152, 2-(3-chlorobenzyl)cyclopentyl ((S)-4-methyl-1-oxo-1-(((S)-1-oxo-3-((S)-2-oxopyrrolidin-3-yl)propan-2-yl)amino)pentan-2-yl)carbamate] to `CC1(C)CC(C[C@@H](C=O)NC(=O)[C@H](CC2CCCCC2)NC(=O)OC2CCCC2Cc2cccc(Cl)c2)C(=O)N1` (stereo partly drawn) [Compound C156, 2-(3-Chlorobenzyl)cyclopentyl ((2S)-3-cyclohexyl-1-((1-(5,5-dimethyl-2-oxopyrrolidin-3-yl)-3-oxopropan-2-yl)amino)-1-oxopropan-2-yl)carbamate], the IC50 rises from 11.8 nM to 52.8 nM (4.5-fold). The first is the more potent here.

Going from `O=C(N[C@@H](CC1CCCCC1)C(=O)NC(CC1CC2(CCCCC2)NC1=O)C(=O)C(=O)NC1CC1)OC(Cc1cccc(Cl)c1)c1ccccc1` (stereo partly drawn) [Compound C153, 2-(3-Chlorophenyl)-1-phenylethyl ((2S)-3-cyclohexyl-1-((4-(cyclopropylamino)-3,4-dioxo-1-(2-oxo-1-azaspiro[4.5]decan-3-yl)butan-2-yl)amino)-1-oxopropan-2-yl)carbamate] to `O=C(N[C@@H](CC1CCCCC1)C(=O)N[C@@H](C[C@@H]1CCNC1=O)C(=O)C(=O)NC1CC1)OCc1cccc(Cl)c1` [Compound C154, 3-Chlorobenzyl ((S)-3-cyclohexyl-1-(((S)-4-(cyclopropylamino)-3,4-dioxo-1-((S)-2-oxopyrrolidin-3-yl)butan-2-yl)amino)-1-oxopropan-2-yl)carbamate], the IC50 falls from greater than 20000 nM to 1480 nM. The second is the more potent here.

Compound `CCCC[C@H](NC(=O)OC(c1ccccc1)C(C)(C)c1cccc(Cl)c1)C(=O)N[C@H](C=O)C[C@@H]1CCNC1=O` (stereo partly drawn) [Compound C157, 2-(3-Chlorophenyl)-2-methyl-1-phenylpropyl ((S)-1-oxo-1-(((S)-1-oxo-3-((S)-2-oxopyrrolidin-3-yl)propan-2-yl)amino)hexan-2-yl) carbamate] has an IC50 of 0.1 nM.

— patent US20230159453A1 (COCRYSTAL PHARMA, INC., priority 2020, published 2023)
